In PubChem BioAssay AID330 (DTP/NCI, 2004):
“And” between values parts separate entries of the source, which are not always exact repeats. Identical values can stand only once. Toxic doses and inconclusive results are not listed. The calls were made as follows: active = survival T/C of 150% or more; inactive = T/C below 125% in these data. Peptide text beside a SMILES is read from it. * marks the point of attachment. Cbz = O=C(OCc1ccccc1)*

System: P388 leukemia ip, CD2F1 mice, survival T/C
Test: NCI In Vivo Anticancer Drug Screen. Data for tumor model P388 Leukemia (intraperitoneal) in CD2F1 (CDF1) mice
Conditions: endpoint: median survival time, higher = longer survival
Method in brief: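 Mice carrying the transplanted tumor received test compound or vehicle. Survival was recorded in each group, and the value is the treated-group measurement divided by that of the vehicle-treated control group.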

[1] = dose: 50.0 mg/kg/injection, schedule: Q01DX005 (ip), vehicle: Klucel (hydroxypropylcellulose) (HPC)
[2] = dose: 100.0 mg/kg/injection, schedule: Q01DX005 (ip), vehicle: Klucel (hydroxypropylcellulose) (HPC)
[3] = dose: 200.0 mg/kg/injection, schedule: Q01DX005 (ip), vehicle: Klucel (hydroxypropylcellulose) (HPC)
[4] = dose: 60.0 mg/kg/injection, schedule: Q01DX005 (ip), vehicle: Klucel (hydroxypropylcellulose) (HPC)
[5] = dose: 120.0 mg/kg/injection, schedule: Q01DX005 (ip), vehicle: Klucel (hydroxypropylcellulose) (HPC)
[6] = dose: 50.0 mg/kg/injection, schedule: Q01DX005 (ip), vehicle: saline with Tween-80
[7] = dose: 100.0 mg/kg/injection, schedule: Q01DX005 (ip), vehicle: saline with Tween-80
[8] = dose: 200.0 mg/kg/injection, schedule: Q01DX005 (ip), vehicle: saline with Tween-80
[9] = dose: 100.0 mg/kg/injection, schedule: Q01DX009 (ip), vehicle: suspension in saline
[10] = dose: 200.0 mg/kg/injection, schedule: Q01DX009 (ip), vehicle: suspension in saline
[11] = dose: 25.0 mg/kg/injection, schedule: Q01DX005 (ip), vehicle: Klucel (hydroxypropylcellulose) (HPC)
[12] = dose: 50.0 mg/kg/injection, schedule: Q01DX009 (ip), vehicle: Klucel (hydroxypropylcellulose) (HPC)
[13] = dose: 200.0 mg/kg/injection, schedule: Q01DX009 (ip), vehicle: Klucel (hydroxypropylcellulose) (HPC)

Measured: T/C

COC(=O)/C=C1/Nc2cnc(Nc3ccccc3)nc2N(c2ccccc2)C1=O
inactive: dose: 40.0 mg/kg/injection, schedule: Q01DX009 (ip), vehicle: saline 87 % of control | dose: 80.0 mg/kg/injection, schedule: Q01DX009 (ip), vehicle: saline 89 % of control | dose: 160.0 mg/kg/injection, schedule: Q01DX009 (ip), vehicle: saline 87 % of control

O=C1OC(=O)C2C3OC(C(Br)C3Br)C12 (configuration not stated)
inactive: [1] 102 % of control | [2] 98 % of control

CCOC(=CP(=O)(c1ccccc1)c1ccccc1)OCC
inactive: dose: 50.0 mg/kg/injection, schedule: Q01DX005 (ip), vehicle: distilled water + Tween-80 + alcohol 106 % of control | dose: 100.0 mg/kg/injection, schedule: Q01DX005 (ip), vehicle: distilled water + Tween-80 + alcohol 105 % of control | dose: 200.0 mg/kg/injection, schedule: Q01DX005 (ip), vehicle: distilled water + Tween-80 + alcohol 100 % of control

COC(=O)C1CC(OC(C)=O)C(O)C(O)C1OC(C)=O.[O]=[Os]=[O] (configuration not stated)
inactive: dose: 200.0 mg/kg/injection, schedule: Q01DX001 (ip), vehicle: saline 123 % of control

CN1C(=O)/C(=C2\SC(=O)N(CN3CCCCC3)C2=O)c2ccccc21
inactive: [1] 92 % of control | [2] 100 % of control | [3] 99 % of control

Cc1c2ccncc2c(CNC(=O)CCC(=O)NCc2c3cnccc3c(C)c3c2c2ccccc2n3C)c2c3ccccc3n(C)c12
inactive: dose: 6.25 mg/kg/injection, schedule: Q04DX002 (ip), vehicle: saline with Tween-80 108 % of control | dose: 12.5 mg/kg/injection, schedule: Q04DX002 (ip), vehicle: saline with Tween-80 103 % of control | dose: 25.0 mg/kg/injection, schedule: Q04DX002 (ip), vehicle: saline with Tween-80 102 % of control | dose: 50.0 mg/kg/injection, schedule: Q04DX002 (ip), vehicle: saline with Tween-80 102 % of control

O=c1ccc(OS(=O)(=O)c2ccccc2)n[nH]1
inactive: [4] 92 % of control | [5] 90 % of control

CC(C)CC1N=C(NN=C2CCCCC2)SP1(=O)NNc1ncccn1 (configuration not stated)
inactive: [4] 94 % of control | [5] 97 % of control

CCN(CC)C(=S)Cl
inactive: [6] 107 % of control | [7] 106 % of control | [8] 101 % of control

COc1ccc(N2CCN(/C=C3\Cc4ccc(F)cc4C3=O)CC2)cc1
inactive: dose: 100.0 mg/kg/injection, schedule: Q04DX002 (ip), vehicle: Klucel (hydroxypropylcellulose) (HPC) 103 % of control | dose: 200.0 mg/kg/injection, schedule: Q04DX002 (ip), vehicle: Klucel (hydroxypropylcellulose) (HPC) 99 % of control | dose: 400.0 mg/kg/injection, schedule: Q04DX002 (ip), vehicle: Klucel (hydroxypropylcellulose) (HPC) 95 % of control

COc1cc(CCCOC2OC(COC3OCC(O)C(O)C3O)C(O)C(O)C2O)cc2cc(-c3ccc4c(c3)OCO4)oc12 (configuration not stated)
inactive: dose: 2.34 mg/kg/injection, schedule: Q01DX005 (ip), vehicle: Klucel (hydroxypropylcellulose) (HPC) 95 % of control | dose: 4.68 mg/kg/injection, schedule: Q01DX005 (ip), vehicle: Klucel (hydroxypropylcellulose) (HPC) 94 % of control | dose: 9.37 mg/kg/injection, schedule: Q01DX005 (ip), vehicle: Klucel (hydroxypropylcellulose) (HPC) 98 % of control | dose: 18.75 mg/kg/injection, schedule: Q01DX005 (ip), vehicle: Klucel (hydroxypropylcellulose) (HPC) 94 % of control

COC(=O)CNC(=O)C(NC(=O)C1CCCN1C(=O)OCc1ccccc1)C(C)C (stereo not drawn) (Cbz-Pro-Val-Gly-OMe; configuration not given here)
inactive: [6] 105 % of control | [7] 100 % of control | [8] 100 % of control

N#Cc1c(-c2ccccc2)ssc1=S
inactive: dose: 60.0 mg/kg/injection, schedule: Q01DX005 (ip), vehicle: saline with Tween-80 104 % of control | dose: 120.0 mg/kg/injection, schedule: Q01DX005 (ip), vehicle: saline with Tween-80 103 % of control | dose: 240.0 mg/kg/injection, schedule: Q01DX005 (ip), vehicle: saline with Tween-80 106 % of control

Nc1ncnc2c1nc(Br)n2C1OC2COP(=O)(O)OC2C1O (configuration not stated)
inactive: dose: 50.0 mg/kg/injection, schedule: Q01DX009 (ip), vehicle: suspension in saline 100 % of control | [9] 96 % of control | [10] 100 % of control

CC1(C)[C@H](O)CC[C@]2(C)[C@@H]1CC[C@]13C=C[C@](C)(C1)[C@H](O)C[C@H]32
inactive: dose: 1.88 mg/kg/injection, schedule: Q01DX005 (ip), vehicle: Klucel (hydroxypropylcellulose) (HPC) 96 % of control | dose: 3.75 mg/kg/injection, schedule: Q01DX005 (ip), vehicle: Klucel (hydroxypropylcellulose) (HPC) 94 % of control | dose: 7.5 mg/kg/injection, schedule: Q01DX005 (ip), vehicle: Klucel (hydroxypropylcellulose) (HPC) 91 % of control | dose: 15.0 mg/kg/injection, schedule: Q01DX005 (ip), vehicle: Klucel (hydroxypropylcellulose) (HPC) 95 % of control

COc1c(Br)c2c(c([N+](=O)[O-])c1OC)C(=O)OC2C1c2c(cc3c(c2OC)OCO3)CCN1C (configuration not stated)
inactive: [11] 91 % of control | [1] 104 % of control | [2] 104 % of control | [3] 103 % of control

O=C1c2ccccc2C(=O)N1CS(=O)(=O)CN1C(=O)c2ccccc2C1=O
inactive: dose: 100.0 mg/kg/injection, schedule: Q04DX003 (ip), vehicle: saline 97 % of control | dose: 200.0 mg/kg/injection, schedule: Q04DX003 (ip), vehicle: saline 93 % of control | dose: 400.0 mg/kg/injection, schedule: Q04DX003 (ip), vehicle: saline 97 % of control

NN1C(=O)C2C3C=CC(O3)C2C1=O (configuration not stated)
inactive: dose: 50.0 mg/kg/injection, schedule: Q01DX005 (ip), vehicle: saline 98 % of control | dose: 100.0 mg/kg/injection, schedule: Q01DX005 (ip), vehicle: saline 98 % of control | dose: 200.0 mg/kg/injection, schedule: Q01DX005 (ip), vehicle: saline 100 % of control

Cc1ccc2c(N=Nc3ccc(C(=N)N)cc3)ccc(O)c2n1
inactive: [11] 104 % of control | [1] 113 % of control | [2] 111 % of control | [3] 105 % of control

CCCCCCC[n+]1ccccc1C#N
inactive: dose: 12.5 mg/kg/injection, schedule: Q04DX003 (ip), vehicle: saline with Tween-80 103 % of control and 107 % of control | dose: 25.0 mg/kg/injection, schedule: Q04DX003 (ip), vehicle: saline with Tween-80 100 % of control and 103 % of control | dose: 50.0 mg/kg/injection, schedule: Q04DX003 (ip), vehicle: saline with Tween-80 103 % of control | dose: 100.0 mg/kg/injection, schedule: Q04DX003 (ip), vehicle: saline with Tween-80 100 % of control and 118 % of control | dose: 200.0 mg/kg/injection, schedule: Q04DX003 (ip), vehicle: saline with Tween-80 99 % of control

CN(C)C1C(=O)C(C(N)=O)=C(O)C2(O)C(=O)C3=C(O)c4c(O)cccc4C(C)(O)C3CC12 (configuration not stated)
inactive: [11] 94 % of control | [1] 95 % of control | [2] 95 % of control

Nc1cc2[nH]cnc2c(=O)[nH]1
inactive: dose: 6.25 mg/kg/injection, schedule: Q01DX009 (ip), vehicle: suspension in saline 109 % of control and 95 % of control | dose: 12.5 mg/kg/injection, schedule: Q01DX009 (ip), vehicle: suspension in saline 101 % of control and 113 % of control and 97 % of control | dose: 25.0 mg/kg/injection, schedule: Q01DX009 (ip), vehicle: Klucel (hydroxypropylcellulose) (HPC) 100 % of control | dose: 25.0 mg/kg/injection, schedule: Q01DX009 (ip), vehicle: suspension in saline 103 % of control and 107 % of control and 96 % of control | [12] 108 % of control | [9] 99 % of control and 113 % of control | [13] 100 % of control | dose: 200.0 mg/kg/injection, schedule: Q01DX009 (ip), vehicle: saline with Tween-80 95 % of control | [10] 86 % of control and 87 % of control

O=C(CSC(=S)N1CCCCC1)c1ccccc1
inactive: dose: 12.5 mg/kg/injection, schedule: Q01DX009 (ip), vehicle: distilled water + Tween-80 95 % of control | dose: 25.0 mg/kg/injection, schedule: Q01DX009 (ip), vehicle: distilled water + Tween-80 101 % of control | dose: 50.0 mg/kg/injection, schedule: Q01DX009 (ip), vehicle: distilled water + Tween-80 100 % of control | dose: 100.0 mg/kg/injection, schedule: Q01DX009 (ip), vehicle: distilled water + Tween-80 101 % of control | dose: 200.0 mg/kg/injection, schedule: Q01DX009 (ip), vehicle: distilled water + Tween-80 99 % of control

CCCCCCN(CCCCCC)CC(O)c1ccc2c3c(cccc13)CC2 (configuration not stated)
inactive: [12] 106 % of control | dose: 100.0 mg/kg/injection, schedule: Q01DX009 (ip), vehicle: Klucel (hydroxypropylcellulose) (HPC) 102 % of control | [13] 100 % of control
